In article PMC10746280, “Bacterial efflux pump modulators prevent bacterial growth in macrophages and under broth conditions that mimic the host environment” (mBio, 2023):

Experiments:
[1] = system: S. Typhimurium SL1344 (sifB::gfp) in RAW 264.7 macrophages; experiment: SAFIRE macrophage assay: intracellular bacterial load (GFP signal within macrophages); format: cell-based, Salmonella enterica serotype Typhimurium; conditions: 'Toxic' given instead of a score
Text: (§1) In SAFIRE, we used MATLAB software to count the number of macrophages that remain adherent and retain the red fluorescence of MitoTracker, an indicator of voltage across the mitochondrial inner membrane. MATLAB then calculates the signal from bacteria (green fluorescent protein [GFP]) that overlaps with macrophages, as defined by MitoTracker, to estimate bacterial load. […] For example, we observed that the 6-trifluoropyrimidin-2-yl group on the right-hand side of EPM35 is apparently toxic to macrophages. Non-toxic analogs that reduced bacterial load by at least 60% at 5 µM and 25 µM in SAFIRE, as compared with DMSO, progressed and were evaluated in SAFIRE across eight or more concentrations, ranging from 0.001 µM to 50 µM (n = 2). […] Each of the top 13 analogs had at least an eightfold increase in potency and were not toxic for macrophages at 50 µM in the SAFIRE assay (Fig. 1C).
(§2) As previously described ([18]), RAW 264.7 macrophages (between passages 1 and 6) were grown in complete Dulbecco’s modified Eagle’s medium (DMEM) to approximately 70% to 90% confluence, scraped, washed, resuspended, diluted to 5 × 10^4 in 100 µL, and seeded in black, 96-well, glass-bottomed plates (Brooks Life Sciences catalog number MGB096-1-2-LG-L) at 37°C with 5% CO2. Twenty-four hours later, bacteria grown overnight in LB were diluted into 50 µL phosphate buffered saline (PBS) and added to a final concentration of 1 × 10^7 S. Typhimurium SL1344 (sifB::gfp) per milliliter ([78]) for an approximate multiplicity of infection of 30 bacteria per macrophage cell. Forty-five minutes after bacterial addition, gentamicin (Sigma catalog number G1264) was added to a final concentration of 40 µg/mL to inhibit the growth of remaining extracellular bacteria. Two hours after infection, gentamicin-containing medium was removed and replaced with 200 µL fresh DMEM with compound or DMSO (Sigma catalog number 276855) to the stated final concentrations. At 17.5 h after infection, PBS containing MitoTracker Red CMXRos (Life Technologies catalog number M7512), a vital dye for mitochondrial electric potential, was added to a final concentration of 100 nM. At 18 h after infection, 16% paraformaldehyde was added to a final concentration of 4% and incubated at room temperature for 15 min. Cells were washed twice with PBS and stained for 20 min with 1 µM 4′,6-diamidino-2-phenylindole (DAPI), a vital dye for double-stranded DNA, and stored in 90% glycerol in PBS until imaging. Samples were imaged in six fields of view per well using a semiautomated Yokogawa CellVoyager CV1000 confocal scanner system with a 20×, 0.75-numerical aperture (NA) objective. A MATLAB algorithm calculated bacterial accumulation (GFP fluorescence) within macrophages, as defined by DAPI and MitoTracker Red. GFP^+ macrophage area was defined as the number of GFP-positive pixels per macrophage divided by the total number of pixels per macrophage, averaged across all macrophages in the field ([34]).

[2] = system: RAW 264.7 macrophages; experiment: SAFIRE macrophage assay: host toxicity (adherent macrophage count, morphology); format: cell-based
Text: as §1, §2

| Compound | 5 uM Avg Antibacterial Score [1] | 25 uM Avg Antibacterial Score [1] | 5 uM Avg Cell # Score [2] | 25 uM Avg Cell # Score [2] |
| --- | --- | --- | --- | --- |
| OC(COc1cc(Cl)cc(Cl)c1)CN1CCC(Nc2nccc(C(F)(F)F)n2)CC1 (stereo not drawn) [CU101] | 9 | Toxic | 71 | 73 |
| OC(COc1cccc(Cl)c1)CN1CCC(Nc2nccc(C(F)(F)F)n2)CC1 (stereo not drawn) [CU102] | 18 | Toxic | 82 | 51 |
| OC(COc1cccc(C(F)(F)F)c1)CN1CCC(Nc2nccc(C(F)(F)F)n2)CC1 (stereo not drawn) [CU103] | 9 | Toxic | 82 | 71 |
| CCOC(=O)c1cccc(OCC(O)CN2CCC(Nc3nccc(C(F)(F)F)n3)CC2)c1 (stereo not drawn) [CU104] | 13 | Toxic | 98 | 61 |
| OC(COc1ccccc1F)CN1CCC(Nc2nccc(C(F)(F)F)n2)CC1 (stereo not drawn) [CU105] | 102 | 14 | 79 | 98 |
| OC(COc1ccccc1C(F)(F)F)CN1CCC(Nc2nccc(C(F)(F)F)n2)CC1 (stereo not drawn) [CU106] | 8 | Toxic | 79 | 44 |
| OC(COc1cccc(Br)c1)CN1CCC(Nc2nccc(C(F)(F)F)n2)CC1 (stereo not drawn) [CU107] | 10 | Toxic | 90 | 41 |
| Cc1cccc(OCC(O)CN2CCC(Nc3nccc(C(F)(F)F)n3)CC2)c1 (stereo not drawn) [CU108] | 28 | Toxic | 94 | 27 |
| OC(COc1c(Cl)cccc1Cl)CN1CCC(Nc2nccc(C(F)(F)F)n2)CC1 (stereo not drawn) [CU109] | 56 | Toxic | 74 | 44 |
| O=C(CCOc1ccc(Cl)c(Cl)c1)N1CCC(Nc2nccc(C(F)(F)F)n2)CC1 [CU110] | 107 | Toxic | 79 | 27 |
| O=C(CCOc1ccc(Cl)c(Cl)c1)N1CCC(Nc2nccc(C(F)(F)F)n2)C1 (stereo not drawn) [CU111] | 106 | 104 | 86 | 47 |
| OC(COc1ccccc1C(F)(F)F)CN1CCC(Nc2nccc(C(F)(F)F)n2)C1 (stereo not drawn) [CU112] | 47 | Toxic | 88 | 59 |
| OC(COc1cccc(Br)c1)CN1CCC(Nc2nccc(C(F)(F)F)n2)C1 (stereo not drawn) [CU113] | 68 | Toxic | 92 | 49 |
| Cc1cccc(OCC(O)CN2CCC(Nc3nccc(C(F)(F)F)n3)C2)c1 (stereo not drawn) [CU114] | 96 | 5.57 | 99 | 146 |
| OC(COc1c(Cl)cccc1Cl)CN1CCC(Nc2nccc(C(F)(F)F)n2)C1 (stereo not drawn) [CU115] | 99 | Toxic | 93 | 59 |
| OC(COc1cccc2[nH]ccc12)CN1CCC(Nc2nccc(C(F)(F)F)n2)CC1 (stereo not drawn) [CU116] | 90 | 6.41 | 99 | 94 |
| OC(COc1ccc2cc[nH]c2c1)CN1CCC(Nc2nccc(C(F)(F)F)n2)CC1 (stereo not drawn) [CU117] | 3.65 | Toxic | 66 | 74 |
| OC(COc1cnsn1)CN1CCC(Nc2nccc(C(F)(F)F)n2)CC1 (stereo not drawn) [CU118] | 102 | 80 | 89 | 124 |

| Compound | 5 uM Avg Antibacterial Score [1] | 25 uM Avg Antibacterial Score [1] | 5 uM Avg Cell # Score [2] | 25 uM Avg Cell # Score [2] |
| --- | --- | --- | --- | --- |
| OC(COc1cc(F)cc(Br)c1)CN1CCC(Nc2nccc(C(F)(F)F)n2)CC1 (stereo not drawn) [CU119] | 13 | Toxic | 72 | 50 |
| OC(COc1ccc(Cl)cc1Br)CN1CCC(Nc2nccc(C(F)(F)F)n2)CC1 (stereo not drawn) [CU120] | 13 | Toxic | 74 | 46 |
| OC(COc1ccc(Cl)cc1Cl)CN1CCC(NC2CC2)C1 (stereo not drawn) [CU121] | 73 | 11 | 89 | 89 |
| CN(CC(O)COc1ccc(Cl)c(Cl)c1)C1CCOC1 (stereo not drawn) [CU122] | 102 | 81 | 81 | 74 |
| CCN(CC(O)COc1ccc(Cl)c(Cl)c1)CC1CCOC1 (stereo not drawn) [CU123] | 98 | 28 | 85 | 84 |
| OC(COc1ccc(Cl)c(Cl)c1)CN1CCC(F)(F)C1 (stereo not drawn) [CU124] | 102 | 85 | 80 | 71 |
| OC(COc1ccc(Cl)c(Cl)c1)CN1CCC(F)C1 (stereo not drawn) [CU125] | 102 | 73 | 81 | 86 |
| CO[C@H]1CCN(CC(O)COc2ccc(Cl)c(Cl)c2)C1 (stereo partly drawn) [CU126] | 99 | 47 | 81 | 86 |
| CO[C@@H]1CCN(CC(O)COc2ccc(Cl)c(Cl)c2)C1 (stereo partly drawn) [CU127] | 97 | 46 | 92 | 85 |
| COCC1CCCN1CC(O)COc1ccc(Cl)c(Cl)c1 (stereo not drawn) [CU128] | 98 | 32 | 85 | 85 |
| OC(COc1ccc(Cl)c(Cl)c1)CN1CCC2(CCOCC2)C1 (stereo not drawn) [CU129] | 95 | 39 | 100 | 88 |
| Cc1nnc(CN(C)CC(O)COc2ccc(Cl)c(Cl)c2)o1 (stereo not drawn) [CU130] | 98 | 85 | 100 | 73 |
| Cc1noc(CN(C)CC(O)COc2ccc(Cl)c(Cl)c2)n1 (stereo not drawn) [CU131] | 101 | 86 | 88 | 80 |
| OC(CNC1(c2ccccc2)CC1)COc1ccc(Cl)c(Cl)c1 (stereo not drawn) [CU132] | 102 | Toxic | 82 | 39 |
| OC(CNCc1cccc2ccccc12)COc1ccc(Cl)c(Cl)c1 (stereo not drawn) [CU133] | 60 | Toxic | 84 | 92 |
| OC(CNCc1ccc2c(c1)OC(F)(F)O2)COc1ccc(Cl)c(Cl)c1 (stereo not drawn) [CU134] | 61 | Toxic | 84 | 91 |
| Cc1cc(CNCC(O)COc2ccc(Cl)c(Cl)c2)sc1C (stereo not drawn) [CU135] | 52 | Toxic | 75 | 103 |
| OC(COc1ccc(Cl)c(Cl)c1)CN1Cc2ccccc2C1 (stereo not drawn) [CU136] | 102 | 60 | 83 | 63 |
